For one data set, the system named is LP1 myeloma cells. The data set is described as follows: Combination assays: viability of myeloma LP1 cells (MTS, combination index). The format is cell-based, human. On the procedure:
To examine whether compounds of Formula I can be combined with other conventional and newer anti-multiple myeloma agents, such as dexamethasone and bortezomib, respectively, LP1 myeloma cells were treated for 72 hours with increasing concentrations of compounds of Formula I in combination with dexamethasone or bortezomib. After incubation, cell growth and viability was measured by the MTS assay. The combination index (CI) analysis, where a CI<1 indicates synergy between two drugs, a CI=1 indicates additivity, and a CI>1 indicates antagonism, was used to determine whether the cytotoxicity produced by the combinations with compounds of Formula I were synergistic, additive, or antagonistic.
The effects of combining these agents with a representative of compounds of Formula I i.e. the compound of Example 1 on the viability of myeloma LP1 cells in culture were assessed. LP1 cells were treated for 72 hours with increasing concentrations of the compound of Example 1 in combination with dexamethasone or bortezomib. After incubation, cell growth and viability was measured by the MTS assay.
The combination of the compound of Example 1 and bortezomib was synergistic with Combination Index values of 0.41, 0.46, and 0.88 at Fraction affected (Fa) levels of 0.39, 0.58, and 0.6, respectively (FIG. 2A).
The combination of the compound of Example 1 and dexamethasone was synergistic with Combination Index values of 0.41, 0.44, and 0.5 at Fraction affected levels of 0.43, 0.5, and 0.64, respectively (FIG. 2B).

Data set [1] concerns normal mononuclear hematopoietic cells (CD138−). Nature of the data set: Viability of primary patient samples (Annexin V, anti-CD138, flow cytometry). Type of data set: cell-based. The settings on record: 24 hours. On the procedure:
Apoptosis was measured by staining cells treated with compounds of Formula I with annexin V-fluorescein isothiocyanate and propidium iodide (both from Biovision Research Products, Mountain View, Calif.) and flow cytometry according to manufacturer's instructions and as previously described [Blood. 2005, 105(10), 4043-4050]. Experiments were performed at least in duplicate and repeated at least twice (n=4-20 data points). Viable primary myeloma cells were identified by staining with phycoerythrin-conjugated mouse monoclonal anti-CD138 antibody (20 μL/[…] cells; Beckman Coulter, Brea, Calif.). The percentage of myeloma cells that were CD138 positive and annexin V negative after compounds of Formula (I) treatment compared with untreated samples was quantified as a marker of cell viability as previously described [Blood. 2007, 109(12), 5430-5438].
Effects of a representative of compounds of Formula I (the compound of Example 1) on the viability of primary malignant and normal hematopoietic cells isolated from patient samples was also studied. […] Viability of normal hematopoietic cells (CD138−) and myeloma cells (CD138+) were measured by flow cytometry with PE-labeled anti-CD138 and FITC-labeled Annexin V co-staining. […]

Consider `Cc1ncc(C(=O)N[C@@H](COC(F)F)C(=O)N[C@@H](COC(F)F)C(=O)N[C@@H](Cc2ccccc2)C(=O)[C@@]2(C)CO2)s1` [Example 1, 2-methyl-thiazole-5-carboxylic acid ((S)-1-{(S)-1-[(S)-1-benzyl-2-((R)-2-methyloxiranyl)-2-oxo-ethylcarbamoyl]-2-difluoromethoxyethylcarbamoyl}-2-difluoromethoxyethyl)-amide], for which the “Combination Index” value was found to be 0.41 with LP1 myeloma cells (combination with bortezomib, Fraction affected 0.39, LP1, 72 hours); 0.46 in the data set on LP1 myeloma cells (combination with bortezomib, Fraction affected 0.58, LP1, 72 hours); 0.88 in the data set on LP1 myeloma cells (combination with bortezomib, Fraction affected 0.6, LP1, 72 hours); 0.41 in the data set with LP1 myeloma cells (combination with dexamethasone, Fraction affected 0.43, LP1, 72 hours); 0.44 in the data set on LP1 myeloma cells (combination with dexamethasone, Fraction affected 0.5, LP1, 72 hours); 0.5 in the data set with LP1 myeloma cells (combination with dexamethasone, Fraction affected 0.64, LP1, 72 hours). Also, the “LD50 normal mononuclear hematopoietic cells” value in data set [1] was > 2.5 µM.

For the origin of these results see patent US9441012B2, “Fluorinated epoxyketone-based compounds and uses thereof as proteasome inhibitors” (FLUORINOV PHARMA INC., priority 2012, dated 2016).
